# What was measured:
# Mino cells = assay: Inhibition of cell proliferation, Mino cells (Cell Viability Assay, 72 h); assay type: cell-based, human; settings: Homo sapiens
# How it was run: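 RPMI1640 + 10% FBS cultures seeded at 20000/well (SU-DHL-4) or 5000/well (Mino, SU-DHL-6), exposed to compound dilutions in triplicate for 72 h at 37 °C, 5% CO2, DMSO vehicle control. Viability read by luminescent reagent; IC50 from dose-response and Max inhi. % = (1 − T72 treated/T72 vehicle)×100 at top concentration.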
# SU-DHL-4 cells = assay: Inhibition of cell proliferation, SU-DHL-4 cells (Cell Viability Assay, 72 h); assay type: cell-based, human; settings: Homo sapiens
# Method: (§1) SU-DHL-4, Mino, and SU-DHL-6 cells, in the culture medium of RPMI1640+10% FBS, were cultured in an incubator at 37° C. under 5% CO2. Cells were plated in a 96-well plate. Specifically, SU-DHL-4 cells were at 20000/well, Mino and SU-DHL-6 cells were at 5000/well, with 90 μL/well. 10 μL of the compounds at different concentrations were added to each well. There were 3 replicate wells for each concentration, and the last column, added with DMSO, was used as a vehicle control group. The cultures were continued for 72 hours at 37° C. under 5% CO2. After 72 hours, 100 μL of detection reagent (Cell Viability Assay, Promega, G7573) was added to each well, and the cultures were uniformly mixed for 2 minutes, and incubated at room temperature for 10 minutes. The fluorescence signal value was measured with a microplate reader (PHERAstar FSX). The IC50 value of the compound on cell proliferation inhibition was calculated using Origin 9.2 software, and the inhibition rate at the highest concentration of the compound (Max inhi. %) was calculated according to formula (1). Max inhi. %=(1-T72 administration/T72 vehicle)×100 Formula (1).
# SU-DHL-6 cells = assay: Inhibition of cell proliferation, SU-DHL-6 cells (Cell Viability Assay, 72 h); assay type: cell-based; settings: Homo sapiens
# Method: as §1
# OCI-LY10 cells = assay: Inhibition of cell proliferation, OCI-LY10 cells (Cell Viability Assay, 72 h); assay type: cell-based; settings: Homo sapiens
# Method: (§2) OCI-LY10 and TMD-8 cells, in the culture medium of RPMI1640+10% FBS, were cultured in an incubator at 37° C. under 5% CO2. Cells were plated in a 96-well plate. Specifically, OCI-LY10 cells were at 10000/well, and TMD-8 cells were at 8000/well, with 90 μL/well. These cells were cultured at 37° C. under 5% CO2 overnight. On the next day, 10 μL of the compounds at different concentrations were added to each well. There were 3 replicate wells for each concentration, and the last column, added with DMSO, was used as a vehicle control group. The cultures were continued for 72 hours at 37° C. under 5% CO2. After 72 hours, 50 μL of detection reagent (Cell Viability Assay, Promega, G7573) was added to each well, and the cultures were uniformly mixed for 2 minutes, and incubated at room temperature for 10 minutes. The fluorescence signal value was measured with an Envision2104 plate reader (PerkinElmer). The inhibition rate was calculated using formula (2), wherein RLUcompound was the readout of the drug treated group, RLUcontrol was the average value of the vehicle control group, and RLUblank was the average value of the cell-free wells. The IC50 value was calculated using GraphPad Prism software. IR (%)=(1−(RLUcompound-RLUblank)/(RLUcontrol-RLUblank))*100% formula (2)
# TMD-8 cells = assay: Inhibition of cell proliferation, TMD-8 cells (Cell Viability Assay, 72 h); assay type: cell-based; settings: Homo sapiens, TMD8
# Method: as §2
# [1] = Pharmacokinetic experiment in rats (i.g. vehicle 0.5% MC); assay type: in vivo; settings: Sprague-Dawley (SD), rat, plasma, po, male SD rats; for bioavailability: i.g. 20 mg/kg (0.5% MC) vs i.v. 5 mg/kg; for AUC(0-t): i.g. 20 mg/kg, vehicle 0.5% MC, read-out: AUC0-t
# Method: (§3) Objective: In this experiment, a single dose of each test compound was administered to SD rats intravenously and intragastrically, the concentrations of the test compound in plasma of rats were measured, and the pharmacokinetic characteristics and bioavailability of the test compound in rats were evaluated.
# Experimental animals: Male SD rats, 200-250 g, 6-8 weeks old, 6 rats/test compound. The experimental animals were purchased from CHENGDU DOSSY EXPERIMENTAL ANIMALS CO., LTD.
# (§4) Experimental method: On the day of the experiment, 6 SD rats were randomly grouped according to their body weight. The animals were fasted with water available for 12 to 14 hours one day before the administration of a test compound, and were fed 4 hours after the administration.
# Sampling: Before and after the administration, 0.1 ml of blood was taken from the orbit of the rats under isoflurane anesthesia, and placed in an EDTAK2 centrifuge tube. Centrifugation was carried out at 5000 rpm at 4° C. for 10 min and the plasma was collected.
# Time points for plasma collection in G1 group: 0, 5 m, 15 m, 30 m, 1 h, 2 h, 4 h, 6 h, 8 h, and 24 h.
# Time points for plasma collection in G2 group: 0, 15 m, 30 m, 1 h, 2 h, 4 h, 6 h, 8 h, and 24 h.
# (§5) Before analysis and detection, all samples were stored at −80° C. The samples were analyzed quantitatively by LC-MS/MS.
# [2] = Pharmacokinetic experiment in rats (i.g. vehicle DMSO/Solutol/PEG-400/SBE-β-CD); assay type: in vivo; settings: Sprague-Dawley (SD), rat, plasma, po, male SD rats; for bioavailability: i.g. 20 mg/kg (DMSO/Solutol/PEG-400/SBE-β-CD) vs i.v. 5 mg/kg; for AUC(0-t): i.g. 20 mg/kg, vehicle 5% DMSO + 5% Solutol + 30% PEG-400 + 60% (20%SBE-β-CD)
# Method: as §3
# Experimental animals: Male SD rats, 200-250 g, 6-8 weeks old, 6 rats/compound. The experimental animals were purchased from CHENGDU DOSSY EXPERIMENTAL ANIMALS CO., LTD.
# as §4
# Sampling: Before and after the administration, 0.1 mL of blood was taken from the orbit of the rats under isoflurane anesthesia, and placed in an EDTAK2 centrifuge tube. Centrifugation was carried out at 5000 rpm at 4° C. for 10 min and the plasma was collected.
# Time points for plasma collection in G1 group: 0, 5 min, 15 min, 30 min, 1 h, 2 h, 4 h, 6 h, 8 h, and 24 h.
# Time points for plasma collection in G2 group: 0, 15 min, 30 min, 1 h, 2 h, 4 h, 6 h, 8 h, and 24 h.
# as §5
IC50 (SU-DHL-4 cells) [nM],IC50 (SU-DHL-6 cells) [nM],IC50 (OCI-LY10 cells) [nM],bioavailability [1] [%],AUC(0-t) [1] [ng·h/mL],bioavailability [2] [%],AUC(0-t) [2] [ng·h/mL],Structure (SMILES),IC50 (Mino cells) [nM],IC50 (TMD-8 cells) [nM]
255,399,3,11.8 ± 4.4,634 ± 238,,,"Nc1ncnc2c1c(-c1ccc(Oc3ccccc3)cc1)nn2C1CCN(C2CCN(C3CN(c4ccc5c(c4)C(=O)N(C4CCC(=O)NC4=O)C5=O)C3)CC2)CC1 (centres unmarked) [Compound 8, 5-(3-(4-(4-amino-3-(4-phenoxyphenyl)-1H-pyrazolo[3,4-d]pyrimidin-1-yl)-[1,4′-bipiperidin]-1′-yl)azetidin-1-yl)-2-(2,6-dioxopiperidin-3-yl)isoindoline-1,3-dione tritrifluoroacetate]",309,22
295,155,,,8.93 ± 4.3,,,"Nc1ncnc2c1c(-c1ccc(Oc3ccccc3)cc1)nn2C1CCN(CC2CCN(C3CCN(c4ccc5c(c4)C(=O)N(C4CCC(=O)NC4=O)C5=O)CC3)CC2)CC1 (centres unmarked) [Compound 9, 5-(4-((4-(4-amino-3-(4-phenoxyphenyl)-1H-pyrazolo[3,4-d]pyrimidin-1-yl)piperidin-1-yl)methyl)-[1,4′-bipiperidin]-1′-yl)-2-(2,6-dioxopiperidin-3-yl)isoindoline-1,3-dione tetratrifluoroacetate]",367,
394,,23,,1260 ± 117,,,"Nc1ncnc2c1c(-c1ccc(Oc3ccccc3)cc1)nn2C1CCN(C2CN(C3CN(c4ccc5c(c4)C(=O)N(C4CCC(=O)NC4=O)C5=O)C3)C2)CC1F (stereo not drawn) [Compound 19-1, trans-5-(3-(4-(4-amino-3-(4-phenoxyphenyl)-1H-pyrazolo[3,4-d]pyrimidin-1-yl)-3-fluoropiperidin-1-yl)-[1,3′-biazetidin]-1′-yl)-2-(2,6-dioxopiperidin-3-yl)isoindoline-1,3-dione]",,14
330,393,,,322 ± 64,,,"Nc1ncnc2c1c(-c1ccc(Oc3ccccc3)cc1)nn2C1CCN(C2CCN(C3CN(c4cc5c(cc4F)C(=O)N(C4CCC(=O)NC4=O)C5=O)C3)CC2)CC1 (centres unmarked) [Compound 32, 5-(3-(4-(4-amino-3-(4-phenoxyphenyl)-1H-pyrazolo[3,4-d]pyrimidin-1-yl)-[1,4′-bipiperidin]-1′-yl)azetidin-1-yl)-2-(2,6-dioxopiperidin-3-yl)-6-fluoroisoindoline-1,3-dione]",188,
469,888,,,,13.3 ± 5.2,7260 ± 2860,"Nc1ncnc2c1c(-c1ccc(Oc3ccccc3)cc1)nn2[C@@H]1CCN(C2CN(C3CN(c4ccc5c(c4)C(=O)N(C4CCC(=O)NC4=O)C5=O)C3)C2)C[C@@H]1F (stereo partly drawn) [Compound 38, 5-[3-[3-[(3S,4R)-4-[4-amino-3-(4-phenoxyphenyl)pyrazolo[3,4-d]pyrimidin-1-yl]-3-fluoro-1-piperidyl]azetidin-1-yl]azetidin-1-yl]-2-(2,6-dioxo-3-piperidyl)isoindoline-1,3-dione]",81,
,,,,,9.1 ± 1.5,2830 ± 474,"Nc1ncnc2c1c(-c1ccc(Oc3ccccc3)cc1)nn2[C@@H]1CCN(C2CN(C3CN(c4ccc5c(c4)C(=O)N(C4CCC(=O)NC4=O)C5=O)C3)C2)C[C@H]1F (stereo partly drawn) [Compound 39, 5-(3-((3R,4R)-4-(4-amino-3-(4-phenoxyphenyl)-1H-pyrazolo[3,4-d]pyrimidin-1-yl)-3-fluoropiperidin-1-yl)-[1,3′-biazetidin]-1′-yl)-2-(2,6-dioxopiperidin-3-yl)isoindoline-1,3-dione]",41,
329,670,,,,10.8 ± 1.5,7910 ± 1100,"Nc1ncnc2c1c(-c1ccc(Oc3ccccc3)cc1)nn2[C@H]1CCN(C2CN(C3CN(c4ccc5c(c4)C(=O)N(C4CCC(=O)NC4=O)C5=O)C3)C2)C[C@H]1F (stereo partly drawn) [Compound 41, 5-(3-((3R,4S)-4-(4-amino-3-(4-phenoxyphenyl)-1H-pyrazolo[3,4-d]pyrimidin-1-yl)-3-fluoropiperidin-1-yl)-[1,3′-biazetidin]-1′-yl)-2-(2,6-dioxopiperidin-3-yl)isoindoline-1,3-dione]",10.3,
330,407,,,,11 ± 2.2,4500 ± 886,"Nc1ncnc2c1c(-c1ccc(Oc3ccccc3)cc1)nn2[C@H]1CCN(C2CN(C3CN(c4ccc5c(c4)C(=O)N(C4CCC(=O)NC4=O)C5=O)C3)C2)C[C@@H]1F (stereo partly drawn) [Compound 43, 5-[3-[3-[(3S,4S)-4-[4-amino-3-(4-phenoxyphenyl)pyrazolo[3,4-d]pyrimidin-1-yl]-3-fluoro-1-piperidyl]azetidin-1-yl]azetidin-1-yl]-2-(2,6-dioxo-3-piperidyl)isoindoline-1,3-dione]",10,
,,,,,5.73 ± 0.64,877 ± 98,"Nc1ncnc2c1c(-c1ccc(Oc3ccccc3)cc1)nn2[C@H]1CCN(C2CCN(C3CN(c4ccc5c(c4)C(=O)N(C4CCC(=O)NC4=O)C5=O)C3)CC2)C[C@@H]1F (stereo partly drawn) [Compound 44, 5-(3-((3S,4S)-4-(4-amino-3-(4-phenoxyphenyl)-1H-pyrazolo[3,4-d]pyrimidin-1-yl)-3-fluoro-[1,4′-bipiperidin]-1′-yl)azetidin-1-yl)-2-(2,6-dioxopiperidin-3-yl)isoindoline-1,3-dione]",15,
1180,1640,29,0,,0,,"Nc1ncnc2c1c(-c1ccc(Oc3ccccc3)cc1)nn2[C@@H]1CCCN(C(=O)c2cn(CCOCCOCCOCCNc3cccc4c3C(=O)N(C3CCC(=O)NC3=O)C4=O)nn2)C1 (some centres unmarked) [Compound P13I, reference compound]",844,104
